22 compounds from patent US10407422B2, “Triazolopyridine inhibitors of myeloperoxidase” (priority 2015, dated 2019) can be followed below.

Each structure is given as a SMILES string.

In assay [1] the target is T1, myeloperoxidase (MPO) (Homo sapiens (Human), UniProt P05164). Nature of the assay: MPO chlorination assay (APF assay). The class given is biochemical. The following applies: potency range class. The procedure: [formula] where A=minimal Y value (activity level of inhibited sample), B=maximal Y value (activity level of uninhibited sample), C=Log IC50, D=Hill Slope, x=concentration of inhibitor. MPO Chlorination Assay (APF Assay) MPO chlorination activity was measured in 100 mM KPi (pH 7.4) by utilizing the non-fluorescent reagent Aminophenyl fluorescein (APF, Invitrogen Cat. #A36003). APF is cleaved by (—OCl) to yield the fluorescent compound fluorescein. Reactions were carried out in 50 μL total volume by adding a 25 μL mixture of 200 pM myeloperoxidase and 120 mM NaCl to 100 nL inhibitor in 100% DMSO in a 384 well, non-binding surface clear bottom plate (Corning #3655). Enzyme, inhibitor, and chloride were preincubated for ten minutes at room temperature. After the ten minute preincubation, 25 μL of an APF mixture containing […], 120 mM NaCl and 10 μM H2O2 was added to the plate using the internal dispensing system of a Hammatsu FDSS 6000. Kinetic determinations were carried out immediately on the FDSS 6000 (3 minute kinetic read, 1 read every second, ex: 485 nm, em: 535 nm). IC50 values for inhibitors were calculated by taking the slope of the linear portion of the kinetic measurement (20 seconds to ˜80-120 secs). IC50 values were calculated by determining the slope of the linear portion of the kinetic trace […], and using that calculated slope to determine % inhibition occurring at each concentration of inhibitor using the following equation: [formula] where A=minimal Y value (activity level of inhibited sample), B=maximal Y value (activity level of uninhibited sample), C=Log IC50, D=Hill Slope, x=concentration of inhibitor. EPX Bromination Assay

The target of assay [2] is T1, myeloperoxidase (MPO). In words: MPO peroxidation assay (Amplex Red assay). It is filed as biochemical. The note with it: potency range class. Put shortly: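 Human MPO at 200 pM with 40 nM H2O2 preincubated 10 min at room temperature with inhibitor in 100 mM KPi pH 7.4. Reaction started with Amplex Red mixture (200 μM Amplex Red, 10 mM H2O2); resorufin fluorescence (Ex 535, Em 590 nm) read kinetically for 15 min. IC50 fitted from slopes over 180-540 s.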

T1 sequence (P05164 49-745): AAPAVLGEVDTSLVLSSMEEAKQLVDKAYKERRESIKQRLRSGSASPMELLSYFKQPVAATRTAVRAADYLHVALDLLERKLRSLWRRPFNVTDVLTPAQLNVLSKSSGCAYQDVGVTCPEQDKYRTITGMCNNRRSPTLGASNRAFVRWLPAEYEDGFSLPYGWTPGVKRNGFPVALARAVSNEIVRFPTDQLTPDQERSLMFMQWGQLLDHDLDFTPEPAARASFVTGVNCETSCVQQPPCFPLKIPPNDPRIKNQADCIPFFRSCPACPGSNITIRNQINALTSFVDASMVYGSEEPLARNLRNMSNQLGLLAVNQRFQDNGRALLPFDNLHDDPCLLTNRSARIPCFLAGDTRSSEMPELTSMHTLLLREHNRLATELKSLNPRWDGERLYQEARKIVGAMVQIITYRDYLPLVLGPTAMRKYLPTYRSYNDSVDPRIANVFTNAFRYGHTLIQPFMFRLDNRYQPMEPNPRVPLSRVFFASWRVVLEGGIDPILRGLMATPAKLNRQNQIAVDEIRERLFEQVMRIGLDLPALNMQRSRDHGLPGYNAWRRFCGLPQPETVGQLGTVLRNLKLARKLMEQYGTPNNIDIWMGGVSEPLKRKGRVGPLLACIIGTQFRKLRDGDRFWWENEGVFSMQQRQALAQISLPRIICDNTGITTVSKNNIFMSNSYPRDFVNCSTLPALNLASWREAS

What is called IC50 is the midpoint of a concentration-inhibition curve. Low readings indicate greater potency, high ones weaker potency. Turning to `Cc1ccccc1-n1cc(Cc2cc(N)nc3[nH]nnc23)cn1` [Example 24, 7-((1-(2-Methylphenyl)-1H-pyrazol-4-yl)methyl)-3H-[1,2,3]triazolo[4,5-b]pyridin-5-amine], the IC50 fell in the range of 1 to 100 nM in assay [1] and 101 to 999 nM in assay [2].

In the case of `CN1CCN(CC(=O)NCc2ccc(Cn3cc(Cc4cc(N)nc5[nH]nnc45)cn3)cc2)CC1` [Example 252, N-[(4-{[4-({5-Amino-3H-[1,2,3]triazolo[4,5-b]pyridin-7-yl}methyl)-1H-pyrazol-1-yl]methyl}phenyl)methyl]-2-(4-methylpiperazin-1-yl)acetamide], the IC50 in assay [1] and in assay [2] was 101 to 999 nM in each case.

Consider `Nc1cc(Cc2cnn(Cc3ccc4c(c3)C(c3ccccc3)CNC4)c2)c2nn[nH]c2n1` (centres unmarked) [Example 261, 7-({1-[(4-Phenyl-1,2,3,4-tetrahydroisoquinolin-6-yl)methyl]-1H-pyrazol-4-yl}methyl)-3H-[1,2,3]triazolo[4,5-b]pyridin-5-amine], for which the IC50 in assay [1] and in assay [2] was 1 to 100 nM in each case.

In the case of `Nc1cc(Cc2cnn(C3CCNC3)c2)c2nn[nH]c2n1` (centres unmarked) [Example 66, 7-((1-(Pyrrolidin-3-yl)-1H-pyrazol-4-yl)methyl)-3H-[1,2,3]triazolo[4,5-b]pyridin-5-amine], the IC50 in assay [1] and in assay [2] was 101 to 999 nM in each case.

As to `Cc1cc(Cc2cc(N)nc3[nH]nnc23)no1` [Example 71, 7-[(5-Methyl-1,2-oxazol-3-yl)methyl]-3H-[1,2,3]triazolo[4,5-b]pyridin-5-amine], the IC50 in assay [1] and in assay [2] was 101 to 999 nM in each case.

As to `COc1ncc(-c2cccc(Cn3cc(Cc4cc(N)nc5[nH]nnc45)cn3)c2)cn1` [Example 156, 7-[(1-{[3-(2-Methoxypyrimidin-5-yl)phenyl]methyl}-1H-pyrazol-4-yl)methyl]-3H-[1,2,3]triazolo[4,5-b]pyridin-5-amine], the IC50 in assay [1] and in assay [2] was 1 to 100 nM in each case.

Regarding `Nc1cc(Cc2cnn(-c3ccccn3)c2)c2nn[nH]c2n1` [Example 31, 7-((1-(Pyridin-2-yl)-1H-pyrazol-4-yl)methyl)-3H-[1,2,3]triazolo[4,5-b]pyridin-5-amine], the IC50 in assay [1] and in assay [2] was 1 to 100 nM each time.

Consider `Nc1cc(Cc2cnn(CC3CCN(C(=O)OCc4ccccc4)CC3)c2)c2nn[nH]c2n1` [Example 65, Benzyl 4-((4-((5-amino-3H-[1,2,3]triazolo[4,5-b]pyridin-7-yl)methyl)-1H-pyrazol-1-yl)methyl)piperidine-1-carboxylate], for which the half-maximal inhibitory concentration (IC50) in assay [1] and in assay [2] was 101 to 999 nM each time.

Regarding `COc1nccc2ccc(Cn3cc(Cc4cc(N)nc5[nH]nnc45)cn3)cc12` [Example 174, 7-((1-((1-Methoxyisoquinolin-7-yl)methyl)-1H-pyrazol-4-yl)methyl)-3H-[1,2,3]triazolo[4,5-b]pyridin-5-amine], the IC50 in assay [1] was in the range of 101 to 999 nM; in assay [2], 1 to 100 nM.

As to `Nc1cc(Cc2cnn(CC3CCCCC3)c2)c2nn[nH]c2n1` [Example 55, 7-((1-(Cyclohexylmethyl)-1H-pyrazol-4-yl)methyl)-3H-[1,2,3]triazolo[4,5-b]pyridin-5-amine], the IC50 in assay [1] and in assay [2] was 1 to 100 nM throughout.

As to `Nc1cc(Cc2cnn(Cc3ccc(C(=O)NCc4ccn[nH]4)cc3)c2)c2nn[nH]c2n1` [Example 78, 4-{[4-({5-Amino-3H-[1,2,3]triazolo[4,5-b]pyridin-7-yl}methyl)-1H-pyrazol-1-yl]methyl}-N-(1H-pyrazol-5-ylmethyl)benzamide], the results for the IC50 in assay [1] and in assay [2] were 101 to 999 nM and 1 to 100 nM, respectively.

On to `Nc1cc(Cc2cnn(C3CCCC3)c2)c2nn[nH]c2n1` [Example 54, 7-((1-Cyclopentyl-1H-pyrazol-4-yl)methyl)-3H-[1,2,3]triazolo[4,5-b]pyridin-5-amine], for which the IC50 in assay [1] and in assay [2] was 1 to 100 nM in each case.

Consider `Nc1cc(Cc2cn(Cc3cccc(C4CCNCC4)c3)nc2C(F)(F)F)c2nn[nH]c2n1` [Example 284, 7-((1-(3-(Piperidin-4-yl)benzyl)-3-(trifluoromethyl)-1H-pyrazol-4-yl)methyl)-3H-[1,2,3]triazolo[4,5-b]pyridin-5-amine], for which the IC50 in assay [1] and in assay [2] was 101 to 999 nM throughout.

Consider `Nc1cc(Cc2cnn(Cc3cccc(N4CCNC(c5ccccc5)C4)c3)c2)c2nn[nH]c2n1` (centres unmarked) [Example 219, 7-[(1-{[3-(3-Phenylpiperazin-1-yl)phenyl]methyl}-1H-pyrazol-4-yl)methyl]-3H-[1,2,3]triazolo[4,5-b]pyridin-5-amine], for which the figures for the IC50 in assay [1] and in assay [2] were 1 to 100 nM and 101 to 999 nM, respectively.

As to `Nc1cc(Cc2cnn(Cc3ccc(C(=O)NCc4ccc(=O)[nH]c4)cc3)c2)c2nn[nH]c2n1` [Example 94, 4-{[4-({5-Amino-3H-[1,2,3]triazolo[4,5-b]pyridin-7-yl}methyl)-1H-pyrazol-1-yl]methyl}-N-[(6-oxo-1,6-dihydropyridin-3-yl)methyl]benzamide], the IC50 in assay [1] was 101 to 999 nM; in assay [2], 1 to 100 nM.

Take `Nc1cc(Cc2cnn(Cc3cc([C@@H]4CCNC4)ccc3Cl)c2)c2nn[nH]c2n1` [Example 198, 7-{[1-({2-Chloro-5-[(3 S)-pyrrolidin-3-yl]phenyl}methyl)-1H-pyrazol-4-yl]methyl}-3H-[1,2,3]triazolo[4,5-b]pyridin-5-amine]: the IC50 in assay [1] fell in the range of 101 to 999 nM; in assay [2], 1 to 100 nM.

Consider `CN(C)C(=O)[C@@H]1C[C@@H](Oc2cccc(Cn3cc(Cc4cc(N)nc5[nH]nnc45)cn3)c2)CN1` [Example 247, (2S,4R)-4-(3-{[4-({5-Amino-3H-[1,2,3]triazolo[4,5-b]pyridin-7-yl}methyl)-1H-pyrazol-1-yl]methyl}phenoxy)-N,N-dimethylpyrrolidine-2-carboxamide], for which the concentration for half-maximal inhibition (IC50) in assay [1] and in assay [2] was 101 to 999 nM throughout.

In the case of `Nc1cc(Cc2cnn(Cc3ccc4c(c3)CCC[C@@H]4N)c2)c2nn[nH]c2n1` [Example 267, 7-[(1-{[(5S)-5-Amino-5,6,7,8-tetrahydronaphthalen-2-yl]methyl}-1H-pyrazol-4-yl)methyl]-3H-[1,2,3]triazolo[4,5-b]pyridin-5-amine], the IC50 in assay [1] and in assay [2] was 1 to 100 nM throughout.

As for `Nc1cc(Cc2cnn(Cc3cccnc3)c2)c2nn[nH]c2n1` [Example 102, 7-((1-(Pyridin-3-ylmethyl)-1H-pyrazol-4-yl)methyl)-3H-[1,2,3]triazolo[4,5-b]pyridin-5-amine], the IC50 fell in the range of 101 to 999 nM in assay [1] and 1 to 100 nM in assay [2].

For `Nc1cc(Cc2cnn(Cc3ccc4c(c3)CCN(C(=O)c3ncc[nH]3)C4)c2)c2nn[nH]c2n1` [Example 131, (6-((4-((5-Amino-3H-[1,2,3]triazolo[4,5-b]pyridin-7-yl)methyl)-1H-pyrazol-1-yl)methyl)-3,4-dihydroisoquinolin-2(1H)-yl)(1H-imidazol-2-yl)methanone], the IC50 in assay [1] and in assay [2] was 101 to 999 nM each time.

As for `CN(C)CCN(C)C(=O)c1ccc(Cn2cc(Cc3cc(N)nc4[nH]nnc34)cn2)cc1` [Example 77, 4-{[4-({5-Amino-3H-[1,2,3]triazolo[4,5-b]pyridin-7-yl}methyl)-1H-pyrazol-1-yl]methyl}-N-[2-(dimethylamino)ethyl]-N-methylbenzamide], the concentration for half-maximal inhibition (IC50) in assay [1] fell in the range of 101 to 999 nM; in assay [2] it was 1 to 100 nM.

Turning to `CC(C)(C)[Si](C)(C)OCC(c1ccccc1)n1cc(Cc2cc(N)nc3[nH]nnc23)cn1` (centres unmarked) [Example 144], the IC50 in assay [1] and in assay [2] was 101 to 999 nM throughout.
